Source: patent US20160158200A1, “Combinations of Hepatitis C Virus Inhibitors” (priority 2013, published 2016)

Test system: HCV genotype-1a variant with glutamine 30 changed to glutamate in the NS5A protein
Format: cell-based
Conditions: test compound titrated with BMS-790052 fixed at 200 nM; genotype 1a Q30E replicon
Outline: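 Synergy was assessed by combining several fixed amounts of an NS5A-targeting compound with a titration of the second compound of interest.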

| Structure (SMILES) | Fold-Synergistic 1a (Q30E) [fold] |
| --- | --- |
| CC(C)(C)C(NC(=O)C(C)(C)C1CCC(F)(F)CO1)c1nc(-c2ccc(-c3ccc(-c4c[nH]c(C(NC(=O)C(C)(C)C5CCC(F)(F)CO5)C(C)(C)C)n4)cc3)cc2)c[nH]1 (mixture of isomers) [Compound P-155] | >100 |
| CC1([C@H](NC(=O)C2(C(C)(C)O)CC2)c2ncc(-c3ccc(-c4ccc(-c5cnc([C@@H](NC(=O)C6(C(C)(C)O)CC6)C6(C)CC6)[nH]5)cc4)cc3)[nH]2)CC1 [Compound B149] | >100 |
| CC(C)(C)[C@H](NC(=O)C1(CF)CC1)c1nc(-c2ccc(-c3ccc(-c4c[nH]c([C@@H](NC(=O)C5(CF)CC5)C(C)(C)C)n4)cc3)cc2)c[nH]1 [Compound P-14] | >100 |
| C[C@@H]1CCN(C(=O)C(=O)N(C2CC2)C2CC2)C1c1nc(-c2ccc(-c3ccc(-c4c[nH]c(C5[C@H](C)CCN5C(=O)C(=O)N(C5CC5)C5CC5)n4)cc3)cc2)c[nH]1 (some centres unmarked) [Compound W-241] | >10 |
| CC(C)(C(=O)N[C@H](c1nc(-c2ccc(-c3ccc(-c4c[nH]c([C@@H](NC(=O)C(C)(C)C(O)C5CCC(F)(F)CC5)C(C)(C)C)n4)cc3)cc2)c[nH]1)C(C)(C)C)C(O)C1CCC(F)(F)CC1 (single isomer, unassigned) [Compound N-143B] | >100 |
| CC(C)OC(=O)NC(C)(C)C(=O)N[C@H](c1nc(-c2ccc(-c3ccc(-c4c[nH]c([C@@H](NC(=O)C(C)(C)NC(=O)OC(C)C)C(C)(C)C)n4)cc3)cc2)c[nH]1)C(C)(C)C [Compound Q-3] | >100 |
| CC(C)[C@H](NC(=O)CCCc1ccccc1)c1ncc(-c2ccc(-c3ccc(-c4cnc([C@@H](NC(=O)CCCc5ccccc5)C(C)C)[nH]4)cc3)cc2)[nH]1 [Compound S-57] | >100 |
| CC(C)(C)C(NC(=O)C1(C)CC1(F)F)c1nc(-c2ccc(-c3ccc(-c4c[nH]c(C(NC(=O)C5(C)CC5(F)F)C(C)(C)C)n4)cc3)cc2)c[nH]1 (single isomer, unassigned) [Compound L-58a] | >100 |
| CC(C)(NC(=O)CC(F)(F)F)C(=O)N[C@H](c1nc(-c2ccc(-c3ccc(-c4c[nH]c([C@@H](NC(=O)C(C)(C)NC(=O)CC(F)(F)F)C(C)(C)C)n4)cc3)cc2)c[nH]1)C(C)(C)C [Compound L-144] | >100 |
| CC(C)(CC(F)(F)F)C(=O)N[C@H](c1nc(-c2ccc(-c3ccc(-c4c[nH]c([C@@H](NC(=O)C(C)(C)CC(F)(F)F)C(C)(C)C)n4)cc3)cc2)c[nH]1)C(C)(C)C [Compound Y-8] | >100 |
| Cc1ncoc1C(=O)N[C@H](c1ncc(-c2ccc(-c3ccc(-c4cnc([C@@H](NC(=O)c5ocnc5C)C(C)C)[nH]4)cc3)cc2)[nH]1)C(C)C [Compound P-93] | >100 |
| CC(C)(C)[C@H](NC(=O)C1(CF)CCC(F)(F)CC1)c1nc(-c2ccc(-c3ccc(-c4c[nH]c([C@@H](NC(=O)C5(CF)CCC(F)(F)CC5)C(C)(C)C)n4)cc3)cc2)c[nH]1 [Compound P-38] | >100 |
| CC(C)[C@H](NC(=O)OC(C)(C)C)c1ncc(-c2ccc(-c3ccc(-c4cnc([C@@H](NC(=O)OC(C)(C)C)C(C)(C)C)[nH]4)cc3)cc2)[nH]1 [Compound Y-40] | >100 |
| CC(C)[C@H](NC(=O)C(C)(C)C)c1ncc(-c2ccc3cc4cc(-c5cnc([C@@H](NC(=O)C(C)(C)C)C(C)C)[nH]5)ccc4cc3c2)[nH]1.O=C(O)C(F)(F)F [Compound B30] | >100 |
| CC(C)(C)[C@H](NC(=O)C1CC12CCOCC2)c1ncc(-c2ccc(-c3ccc(-c4cnc([C@@H](NC(=O)C5CC56CCOCC6)C(C)(C)C)[nH]4)cc3)cc2)[nH]1 (single isomer, unassigned) [Compound B72] | >100 |
| CO[C@H](C)[C@H](NC(=O)[C@@]1(C)CCC(F)(F)CO1)c1nc(-c2ccc(-c3ccc(-c4c[nH]c([C@@H](NC(=O)[C@@]5(C)CCC(F)(F)CO5)[C@@H](C)OC)n4)cc3)cc2)c[nH]1 [Compound L-97] | >100 |
| COC(C)(CCO)C(=O)N[C@H](c1nc(-c2ccc(-c3ccc(-c4c[nH]c([C@@H](NC(=O)C(C)(CCO)OC)C(C)(C)C)n4)cc3)cc2)c[nH]1)C(C)(C)C (single isomer, unassigned) [Compound W-257] | >100 |
| Cc1cccc(CC(=O)N[C@H](c2ncc(-c3ccc(-c4ccc(-c5cnc([C@@H](NC(=O)Cc6cccc(C)c6)C(C)C)[nH]5)cc4)cc3)[nH]2)C(C)C)c1 [Compound S-41] | >10 |
| CC(C)(C)[C@H](NS(=O)(=O)C1CCCCC1)c1nc(-c2ccc(-c3ccc(-c4c[nH]c([C@@H](NS(=O)(=O)C5CCCCC5)C(C)(C)C)n4)cc3)cc2)c[nH]1 [Compound L-118] | >100 |

| Structure (SMILES) | Fold-Synergistic 1a (Q30E) [fold] |
| --- | --- |
| CC(C)(C)[C@H](NC(=O)C1(CO)CCCO1)c1nc(-c2ccc(-c3ccc(-c4c[nH]c([C@@H](NC(=O)C5(CO)CCCO5)C(C)(C)C)n4)cc3)cc2)c[nH]1 (single isomer, unassigned) [Compound Y-110] | >100 |
| CC(C)[C@H](NC(=O)C1(F)CCCCC1)c1ncc(-c2ccc(-c3ccc(-c4cnc([C@@H](NC(=O)C5(F)CCCCC5)C(C)C)[nH]4)cc3)cc2)[nH]1 [Compound Y-30] | >100 |
| CC(C)(C)[C@H](NC(=O)C1CC2CCC(C1)C2(F)F)c1nc(-c2ccc(-c3ccc(-c4c[nH]c([C@@H](NC(=O)C5CC6CCC(C5)C6(F)F)C(C)(C)C)n4)cc3)cc2)c[nH]1 (some centres unmarked) [Compound P-44] | >100 |
| CC(C)(C)[C@H](NC(=O)C1CCC(=C(F)F)CC1)c1nc(-c2ccc(-c3ccc(-c4c[nH]c([C@@H](NC(=O)C5CCC(=C(F)F)CC5)C(C)(C)C)n4)cc3)cc2)c[nH]1 (some centres unmarked) [Compound N-121] | >100 |
| CC(C)(C(=O)N[C@H](c1nc(-c2ccc(-c3ccc(-c4c[nH]c([C@@H](NC(=O)C(C)(C)C(O)c5ccccn5)C(C)(C)C)n4)cc3)cc2)c[nH]1)C(C)(C)C)C(O)c1ccccn1 (single isomer, unassigned) [Compound N-128B] | >100 |
| CC(C)[C@H](NC(=O)C(C)(C)C)c1nc(-c2ccc(-c3ccc(-c4c[nH]c([C@@H](NC(=O)C(C)(C)C)C(C)C)n4)cc3F)cc2)c[nH]1.O=C(O)C(F)(F)F [Compound N-100] | >100 |
| CC(C)(C)[C@H](NC(=O)C1(C2(O)CCC(F)(F)CC2)CC1)c1ncc(-c2ccc(C#Cc3ccc4nc([C@@H](NC(=O)C5(C6(O)CCC(F)(F)CC6)CC5)C(C)(C)C)[nH]c4c3)cc2)[nH]1 [Compound B48B] | >100 |
| CC(C)[C@H](NC(=O)C(=O)C1CC2CCC(C1)C2(F)F)c1ncc(-c2ccc(-c3ccc(-c4cnc([C@@H](NC(=O)C(=O)C5CC6CCC(C5)C6(F)F)C(C)C)[nH]4)cc3)cc2)[nH]1 (some centres unmarked) [Compound P-129] | >100 |
| CC(C)[C@H](NC(=O)c1c(F)cccc1Cl)c1ncc(-c2ccc(-c3ccc(-c4cnc([C@@H](NC(=O)c5c(F)cccc5Cl)C(C)(C)C)[nH]4)cc3)cc2)[nH]1 [Compound Y-43] | >100 |
| CC(C)[C@H](NC(=O)CC#N)c1ncc(-c2ccc(-c3ccc(-c4cnc([C@@H](NC(=O)CC#N)C(C)C)[nH]4)cc3)cc2)[nH]1 [Compound S-29] | >100 |
| CC(C)(C)[C@H](NC(=O)C1CCC(F)(F)CC1)c1ncc(-c2ccc(C#Cc3ccc4nc([C@@H](NC(=O)C5CCC(F)(F)CC5)C(C)(C)C)[nH]c4c3)cc2)[nH]1 [Compound B45] | >100 |
| CC(C)C(NC(=O)C1(C)CCC(F)(F)CO1)c1ncc(-c2ccc(-c3ccc(-c4cnc(C(NC(=O)C5(C)CCC(F)(F)CO5)C(C)C)n4C)cc3)cc2)n1C (centres unmarked) [Compound B-201] | >10 |
| CC1(C)C2CCC(C(=O)N[C@H](c3nc(-c4ccc(-c5ccc(-c6c[nH]c([C@@H](NC(=O)C78CCC(C7)C(C)(C)C8O)C7(C)CC7)n6)cc5)cc4)c[nH]3)C3(C)CC3)(C2)C1O (single isomer, unassigned) [Compound Y-118] | >100 |
| Cc1ccc(S(=O)(=O)NC(c2nc(-c3ccc(-c4ccc(-c5c[nH]c(C(NS(=O)(=O)c6ccc(C)cc6)C(C)(C)C)n5)cc4)cc3)c[nH]2)C(C)(C)C)cc1 [Compound L-117] | >100 |
| C=C1C[C@@H](C(=O)N[C@H](c2nc(-c3ccc(-c4ccc(-c5c[nH]c([C@@H](NC(=O)[C@@H]6CC(=C)CN6C(=O)OC(C)(C)C)C(C)C)n5)cc4)cc3)c[nH]2)C(C)C)N(C(=O)OC(C)(C)C)C1 [Compound W-89] | >100 |
| CC(C)CC(=O)NC1(c2ncc(-c3ccc(-c4ccc(-c5cnc(C6(NC(=O)CC(C)C)CCCC6)[nH]5)cc4)cc3)[nH]2)CCCC1.O=C(O)C(F)(F)F.O=C(O)C(F)(F)F [Compound N-12] | <10 |
| CC(C)[C@H](NC(=O)c1c(F)cccc1Cl)c1ncc(-c2ccc(-c3ccc(-c4cnc([C@@H](NC(=O)c5c(F)cccc5Cl)C(C)C)[nH]4)cc3)cc2)[nH]1 [Compound S-6] | >100 |
| CC(C)[C@H](NC(=O)c1ccco1)c1ncc(-c2ccc(-c3ccc(-c4cnc([C@@H](NC(=O)c5ccco5)C(C)C)[nH]4)cc3)cc2)[nH]1 [Compound S-8] | >100 |
| CCOC(=O)N1CCC[C@H]1c1ncc(-c2ccc(-c3ccc(-c4cnc([C@@H]5CCCN5C(=O)OCC)[nH]4)cc3)cc2)[nH]1 [Compound S-217] | >10 |
